Results from ChEMBL document CHEMBL5649166, “RIP3 induces apoptosis independent of pronecrotic kinase activity” (Mol Cell, 2014).

Columns and labels:
[1] = target: Protein kinase C delta type (Homo sapiens) (UniProt Q05655); assay: Inhibition of human PKCd using ERMRPRKRQGSVRRRV as substrate at 1 uM in presence of 32P-ATP by Hotspot assay relative to control; values are per cent of control
[2] = target: G protein-coupled receptor kinase 6 (Homo sapiens) (UniProt P43250); assay: Inhibition of human GRK6 using casein as substrate at 1 uM in presence of 32P-ATP by Hotspot assay relative to control; values are per cent of control
[3] = target: Protein kinase C theta type (Homo sapiens) (UniProt Q04759); assay: Residual activity of human PKCtheta using ERMRPRKRQGSVRRRV as substrate at 1 uM in presence of 32P-ATP by Hotspot assay relative to control
[4] = target: Vascular endothelial growth factor receptor 3 (Homo sapiens) (UniProt P35916); assay: Inhibition of human FLT4/VEGFR3 using poly[Glu:Tyr] (4:1) as substrate at 1 uM in presence of 32P-ATP by Hotspot assay relative to control; values are per cent of control
[5] = target: Tyrosine-protein kinase JAK2 (Homo sapiens) (UniProt O60674); assay: Inhibition of human JAK2 using poly[Glu:Tyr] (4:1) as substrate at 1 uM in presence of 32P-ATP by Hotspot assay relative to control; values are per cent of control
[6] = target: CDK4/Cyclin D3 (Homo sapiens) (UniProt P11802+P30281); assay: Inhibition of human CDK4/cyclin D3 using RB-CTF as substrate at 1 uM in presence of 32P-ATP by Hotspot assay relative to control; values are per cent of control
[7] = target: Death-associated protein kinase 2 (Homo sapiens) (UniProt Q9UIK4); assay: Inhibition of human DAPK2 using KKLNRTLSFAEPG as substrate at 1 uM in presence of 32P-ATP by Hotspot assay relative to control; values are per cent of control
[8] = target: Tyrosine-protein kinase FRK (Homo sapiens) (UniProt P42685); assay: Inhibition of human FRK/PTK5 using poly[Glu:Tyr] (4:1) as substrate at 1 uM in presence of 32P-ATP by Hotspot assay relative to control; values are per cent of control
[9] = target: Serine/threonine-protein kinase 26 (Homo sapiens) (UniProt Q9P289); assay: Inhibition of human MST4 using myelin basic protein as substrate at 1 uM in presence of 32P-ATP by Hotspot assay relative to control; values are per cent of control
[10] = target: T1, TGF-beta receptor type-1 (Homo sapiens) (UniProt P36897); assay: Inhibition of human ALK5/TGFBR1 using casein as substrate at 1 uM in presence of 32P-ATP by Hotspot assay relative to control; values are per cent of control
T1 sequence (whole entry): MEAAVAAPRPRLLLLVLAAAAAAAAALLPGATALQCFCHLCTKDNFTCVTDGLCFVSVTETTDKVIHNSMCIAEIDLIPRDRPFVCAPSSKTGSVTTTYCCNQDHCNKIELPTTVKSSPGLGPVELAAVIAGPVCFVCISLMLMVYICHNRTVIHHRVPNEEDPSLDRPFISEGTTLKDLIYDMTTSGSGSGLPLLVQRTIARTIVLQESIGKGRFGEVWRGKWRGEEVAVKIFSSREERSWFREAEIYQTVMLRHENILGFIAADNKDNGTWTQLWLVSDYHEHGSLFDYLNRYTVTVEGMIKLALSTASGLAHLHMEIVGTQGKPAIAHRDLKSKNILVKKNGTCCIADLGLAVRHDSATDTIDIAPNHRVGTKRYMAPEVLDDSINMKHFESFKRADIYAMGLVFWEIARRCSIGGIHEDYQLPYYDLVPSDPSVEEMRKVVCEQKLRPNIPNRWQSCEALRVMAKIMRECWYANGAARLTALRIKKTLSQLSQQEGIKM

[11] = target: Mitogen-activated protein kinase kinase kinase 11 (Homo sapiens) (UniProt Q16584); assay: Inhibition of human MLK3/MAP3K11 using myelin basic protein as substrate at 1 uM in presence of 32P-ATP by Hotspot assay relative to control; values are per cent of control
[12] = target: STE20-like serine/threonine-protein kinase (Homo sapiens) (UniProt Q9H2G2); assay: Residual activity of human SLK/STK2 using histone H3 as substrate at 1 uM in presence of 32P-ATP by Hotspot assay relative to control
[13] = target: T2, Testis-specific serine/threonine-protein kinase 1 (Homo sapiens) (UniProt Q9BXA7); assay: Residual activity of human STK22D/TSSK1 using KKKVSRSGLYRSPSMPENLNRPR as substrate at 1 uM in presence of 32P-ATP by Hotspot assay relative to control
T2 sequence (whole entry): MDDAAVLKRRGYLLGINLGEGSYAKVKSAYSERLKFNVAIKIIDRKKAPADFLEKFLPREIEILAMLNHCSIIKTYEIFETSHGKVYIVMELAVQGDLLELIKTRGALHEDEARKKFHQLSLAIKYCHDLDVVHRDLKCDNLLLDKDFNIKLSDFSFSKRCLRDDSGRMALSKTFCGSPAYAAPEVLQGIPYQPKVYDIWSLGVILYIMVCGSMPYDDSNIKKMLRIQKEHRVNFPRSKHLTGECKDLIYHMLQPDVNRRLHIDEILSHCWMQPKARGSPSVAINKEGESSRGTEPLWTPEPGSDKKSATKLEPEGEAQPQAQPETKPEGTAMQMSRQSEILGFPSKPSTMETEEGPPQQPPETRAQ

[14] = target: Calcium/calmodulin-dependent protein kinase type 1G (Homo sapiens) (UniProt Q96NX5); assay: Inhibition of human CAMK1g using KKALRRQETVDAL as substrate at 1 uM in presence of 32P-ATP by Hotspot assay relative to control; values are per cent of control
Sequence of Calcium/calmodulin-dependent protein kinase type 1G (Homo sapiens) (Q96NX5 whole entry): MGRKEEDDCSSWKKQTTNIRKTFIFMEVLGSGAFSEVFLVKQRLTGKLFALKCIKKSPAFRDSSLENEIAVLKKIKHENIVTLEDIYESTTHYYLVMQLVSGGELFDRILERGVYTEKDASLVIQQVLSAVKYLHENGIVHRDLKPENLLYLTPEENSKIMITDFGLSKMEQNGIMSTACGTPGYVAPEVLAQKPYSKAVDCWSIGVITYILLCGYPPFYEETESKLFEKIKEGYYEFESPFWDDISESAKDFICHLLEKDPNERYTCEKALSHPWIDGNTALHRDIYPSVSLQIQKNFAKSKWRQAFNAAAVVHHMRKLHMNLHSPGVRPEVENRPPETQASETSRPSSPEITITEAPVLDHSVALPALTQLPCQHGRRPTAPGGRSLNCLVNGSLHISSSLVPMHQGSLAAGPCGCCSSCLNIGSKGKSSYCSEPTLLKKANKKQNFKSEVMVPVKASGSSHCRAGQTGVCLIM

Sequence of Protein kinase C theta type (Homo sapiens) (Q04759 whole entry, looked up): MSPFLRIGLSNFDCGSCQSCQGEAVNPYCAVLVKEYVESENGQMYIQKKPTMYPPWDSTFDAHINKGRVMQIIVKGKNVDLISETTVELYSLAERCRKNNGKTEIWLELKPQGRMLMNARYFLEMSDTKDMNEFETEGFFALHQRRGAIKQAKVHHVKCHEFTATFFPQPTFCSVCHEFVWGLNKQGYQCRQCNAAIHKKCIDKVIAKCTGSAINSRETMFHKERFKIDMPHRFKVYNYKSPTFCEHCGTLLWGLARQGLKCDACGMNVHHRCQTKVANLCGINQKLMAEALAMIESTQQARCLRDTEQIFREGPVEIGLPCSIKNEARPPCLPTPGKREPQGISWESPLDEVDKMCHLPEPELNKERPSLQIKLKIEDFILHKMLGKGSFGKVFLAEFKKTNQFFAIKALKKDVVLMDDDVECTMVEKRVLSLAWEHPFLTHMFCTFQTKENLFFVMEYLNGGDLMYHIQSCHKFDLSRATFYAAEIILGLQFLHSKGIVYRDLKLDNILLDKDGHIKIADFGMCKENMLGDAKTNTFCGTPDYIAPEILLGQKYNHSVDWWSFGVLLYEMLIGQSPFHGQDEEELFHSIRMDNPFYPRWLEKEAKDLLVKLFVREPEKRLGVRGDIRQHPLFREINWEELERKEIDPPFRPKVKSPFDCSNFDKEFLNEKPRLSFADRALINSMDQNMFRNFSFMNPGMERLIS
Sequence of Death-associated protein kinase 2 (Homo sapiens) (Q9UIK4 whole entry, looked up): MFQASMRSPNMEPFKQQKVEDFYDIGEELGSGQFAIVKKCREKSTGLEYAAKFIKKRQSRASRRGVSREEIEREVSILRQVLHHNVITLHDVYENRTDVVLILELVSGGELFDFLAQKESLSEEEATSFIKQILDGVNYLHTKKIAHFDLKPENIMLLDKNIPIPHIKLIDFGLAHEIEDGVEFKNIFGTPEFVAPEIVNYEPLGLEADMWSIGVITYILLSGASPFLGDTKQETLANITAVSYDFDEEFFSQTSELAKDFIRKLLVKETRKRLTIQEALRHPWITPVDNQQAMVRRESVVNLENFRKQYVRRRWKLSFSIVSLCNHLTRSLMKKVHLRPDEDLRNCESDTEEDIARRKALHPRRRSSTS
Sequence of Protein kinase C delta type (Homo sapiens) (Q05655 whole entry, looked up): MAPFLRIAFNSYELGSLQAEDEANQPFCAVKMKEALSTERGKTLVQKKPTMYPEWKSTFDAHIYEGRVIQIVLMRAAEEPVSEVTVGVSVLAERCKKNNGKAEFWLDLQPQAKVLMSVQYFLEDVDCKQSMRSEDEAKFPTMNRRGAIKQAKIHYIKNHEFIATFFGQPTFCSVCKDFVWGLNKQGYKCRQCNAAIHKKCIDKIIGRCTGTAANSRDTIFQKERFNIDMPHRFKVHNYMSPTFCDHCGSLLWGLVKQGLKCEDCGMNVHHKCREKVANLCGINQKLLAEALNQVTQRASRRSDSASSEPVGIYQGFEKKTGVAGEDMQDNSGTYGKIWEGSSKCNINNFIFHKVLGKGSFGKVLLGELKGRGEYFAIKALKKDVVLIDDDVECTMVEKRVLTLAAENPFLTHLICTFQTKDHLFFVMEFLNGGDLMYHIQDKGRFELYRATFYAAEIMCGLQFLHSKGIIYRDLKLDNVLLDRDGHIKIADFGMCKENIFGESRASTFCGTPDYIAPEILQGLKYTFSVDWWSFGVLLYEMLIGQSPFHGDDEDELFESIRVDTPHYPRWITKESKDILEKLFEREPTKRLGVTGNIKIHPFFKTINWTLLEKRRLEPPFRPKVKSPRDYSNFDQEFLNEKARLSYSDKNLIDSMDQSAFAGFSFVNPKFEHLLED
Sequence of G protein-coupled receptor kinase 6 (Homo sapiens) (P43250 whole entry, looked up): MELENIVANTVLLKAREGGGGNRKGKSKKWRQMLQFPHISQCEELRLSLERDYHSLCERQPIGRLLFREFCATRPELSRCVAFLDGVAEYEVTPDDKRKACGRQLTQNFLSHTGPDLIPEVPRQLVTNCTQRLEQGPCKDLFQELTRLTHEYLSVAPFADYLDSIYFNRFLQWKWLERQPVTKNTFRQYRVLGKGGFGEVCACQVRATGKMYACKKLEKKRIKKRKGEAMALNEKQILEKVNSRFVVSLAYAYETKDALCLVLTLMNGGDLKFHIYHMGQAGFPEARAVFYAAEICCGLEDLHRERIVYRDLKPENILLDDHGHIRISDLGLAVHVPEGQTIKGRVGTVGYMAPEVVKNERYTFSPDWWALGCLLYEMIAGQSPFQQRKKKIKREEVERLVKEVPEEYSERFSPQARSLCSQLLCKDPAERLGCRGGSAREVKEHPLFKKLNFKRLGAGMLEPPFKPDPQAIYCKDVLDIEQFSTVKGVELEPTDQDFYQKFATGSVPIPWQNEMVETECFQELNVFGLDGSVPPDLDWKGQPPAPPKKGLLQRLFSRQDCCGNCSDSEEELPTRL
Sequence of Vascular endothelial growth factor receptor 3 (Homo sapiens) (P35916 whole entry): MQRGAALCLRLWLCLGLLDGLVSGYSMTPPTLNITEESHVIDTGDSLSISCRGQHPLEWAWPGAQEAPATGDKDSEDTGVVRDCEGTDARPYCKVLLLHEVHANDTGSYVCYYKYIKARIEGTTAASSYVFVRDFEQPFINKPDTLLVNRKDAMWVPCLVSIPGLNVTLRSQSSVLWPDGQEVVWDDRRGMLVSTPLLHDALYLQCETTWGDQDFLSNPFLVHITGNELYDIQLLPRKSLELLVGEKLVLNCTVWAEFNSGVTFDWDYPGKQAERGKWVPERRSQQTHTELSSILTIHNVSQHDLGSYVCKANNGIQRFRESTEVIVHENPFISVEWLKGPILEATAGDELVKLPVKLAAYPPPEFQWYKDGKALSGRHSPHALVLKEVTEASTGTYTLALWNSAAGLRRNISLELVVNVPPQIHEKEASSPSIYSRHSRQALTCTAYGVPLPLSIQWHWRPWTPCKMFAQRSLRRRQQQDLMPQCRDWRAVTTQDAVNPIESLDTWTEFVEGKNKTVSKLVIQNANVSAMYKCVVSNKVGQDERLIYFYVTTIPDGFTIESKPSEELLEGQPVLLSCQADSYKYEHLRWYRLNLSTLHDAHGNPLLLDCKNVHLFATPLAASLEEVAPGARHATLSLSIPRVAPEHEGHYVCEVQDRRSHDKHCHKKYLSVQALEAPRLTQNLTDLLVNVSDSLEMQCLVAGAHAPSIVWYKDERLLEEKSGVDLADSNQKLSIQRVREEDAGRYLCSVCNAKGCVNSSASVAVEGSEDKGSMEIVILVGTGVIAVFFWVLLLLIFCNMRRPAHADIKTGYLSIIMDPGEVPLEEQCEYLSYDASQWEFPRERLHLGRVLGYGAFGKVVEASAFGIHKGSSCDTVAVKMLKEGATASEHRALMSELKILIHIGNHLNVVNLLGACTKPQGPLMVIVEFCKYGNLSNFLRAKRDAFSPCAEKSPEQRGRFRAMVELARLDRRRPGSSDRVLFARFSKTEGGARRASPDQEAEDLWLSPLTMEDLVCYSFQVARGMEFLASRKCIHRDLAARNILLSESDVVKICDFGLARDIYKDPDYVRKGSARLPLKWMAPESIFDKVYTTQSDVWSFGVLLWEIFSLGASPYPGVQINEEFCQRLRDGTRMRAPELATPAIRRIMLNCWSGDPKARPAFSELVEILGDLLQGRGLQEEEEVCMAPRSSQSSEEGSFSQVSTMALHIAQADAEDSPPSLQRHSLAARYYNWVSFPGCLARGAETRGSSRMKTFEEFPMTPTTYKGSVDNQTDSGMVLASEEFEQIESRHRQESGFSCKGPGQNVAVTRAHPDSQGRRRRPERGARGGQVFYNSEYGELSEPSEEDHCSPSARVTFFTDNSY
Sequence of Serine/threonine-protein kinase 26 (Homo sapiens) (Q9P289 2-416 limits assumed): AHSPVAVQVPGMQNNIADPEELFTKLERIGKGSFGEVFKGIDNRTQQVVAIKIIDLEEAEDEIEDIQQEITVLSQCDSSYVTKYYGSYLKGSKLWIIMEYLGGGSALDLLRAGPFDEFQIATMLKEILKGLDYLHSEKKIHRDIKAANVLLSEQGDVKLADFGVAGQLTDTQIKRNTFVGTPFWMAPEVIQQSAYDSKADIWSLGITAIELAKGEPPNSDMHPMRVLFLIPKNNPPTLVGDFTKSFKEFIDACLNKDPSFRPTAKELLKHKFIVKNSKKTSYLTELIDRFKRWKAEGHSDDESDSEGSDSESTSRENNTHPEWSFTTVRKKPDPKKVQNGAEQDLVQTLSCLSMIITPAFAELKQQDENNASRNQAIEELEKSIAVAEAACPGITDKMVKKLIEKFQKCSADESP

SMILES	residual activity [1]	residual activity [2]	residual activity [3]	residual activity [4]	residual activity [5]	residual activity [6]	residual activity [7]	residual activity [8]	residual activity [9]	residual activity [10]	residual activity [11]	residual activity [12]	residual activity [13]	residual activity [14]
Cc1cc(-c2cnc(N)c3c(-c4ccc5scnc5c4)csc23)n(C)n1	60.4%	91.9%	98.3%	103%	89.8%	108%	82.4%	65.3%	93.5%	97.8%	69.5%	94.6%	101%	90.9%
CC(C)S(=O)(=O)c1ccc2nccc(Nc3ccc4scnc4c3)c2c1	86.3%	101%	92.8%	83.1%	102%	102%	104%	33.5%	95.9%	101%	81.1%	87.8%	98.6%	85.6%
CNC(=O)c1ccc2c(c1)ncn2-c1ccc(CC(=O)OC(C)(C)C)cc1	90.1%	96.4%	104%	78.8%	95.7%	98.2%	96.3%	90.8%	97.5%	94.9%	85.4%	92.1%	89.2%	94.2%
